In publication PMC5356633, “Arctigenin functions as a selective agonist of estrogen receptor β to restrict mTORC1 activation and consequent Th17 differentiation” (Oncotarget, 2016) one finds IC50 data, which are given here for 1 compound.

The assay concerns the target T1, ERβ (estrogen receptor β) (Homo sapiens, UniProt Q92731).
T1 construct: gene ESR2; full-length ERβ
Put plainly: fluorescence polarization competition binding (PolarScreen ERβ Competitor Assay, Fluormone Tracer). Background: In fluorescence polarisation assays a small probe gives low polarisation when free and higher when bound to something large.

The IC50 is the concentration that gives 50% inhibition.

T1 sequence (Q92731 whole entry): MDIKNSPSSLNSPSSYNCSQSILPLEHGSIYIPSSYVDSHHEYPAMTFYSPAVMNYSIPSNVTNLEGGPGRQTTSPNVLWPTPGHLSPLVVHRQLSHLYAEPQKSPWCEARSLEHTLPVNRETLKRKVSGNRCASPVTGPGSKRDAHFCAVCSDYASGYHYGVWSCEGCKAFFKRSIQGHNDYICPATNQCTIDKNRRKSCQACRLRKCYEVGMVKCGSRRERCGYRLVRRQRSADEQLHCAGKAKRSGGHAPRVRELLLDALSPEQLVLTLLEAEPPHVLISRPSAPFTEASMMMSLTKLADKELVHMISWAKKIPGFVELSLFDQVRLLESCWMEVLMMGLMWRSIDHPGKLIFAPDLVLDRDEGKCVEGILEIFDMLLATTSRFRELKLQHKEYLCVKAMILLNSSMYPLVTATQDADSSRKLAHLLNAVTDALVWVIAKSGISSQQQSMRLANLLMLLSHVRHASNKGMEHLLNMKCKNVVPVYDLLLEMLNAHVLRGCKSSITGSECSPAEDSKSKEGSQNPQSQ

`COc1cc(C[C@H]2C(=O)OC[C@@H]2Cc2ccc(OC)c(OC)c2)ccc1O` [ARCG, arctigenin] came in with a 50% inhibitory concentration (IC50) of 3.29 µM.
